# Test results taken from patent US5625061A, “Compounds useful in preparing antiproliferative agents and garft inhibitors” (Agouron Pharmaceuticals, Inc., priority 1995, dated 1997).
# Legend:
# [1] = test system: GARFT; settings: F. M. Muggia, New Drugs, 1992; cited from earlier work
# [2] = test system: 6C3HED lymphosarcoma implanted in C3H/He female mice; assay: In vivo antitumor activity, 6C3HED lymphosarcoma; set-up: species or system mouse; settings: intraperitoneal, once daily for nine days, day 11
# Description: (§1) On day zero, 2 mm^2 trocar fragments of 6C3HED lymphosarcoma were implanted subcutaneously in the axillary region into groups of six C3H/He female mice. Starting on day 1, the test compound was administered intraperitoneally in 40% Encapsin given once daily for nine days. Control animals received identical treatment without test: compound. The percentage inhibition given in Table 5 below was calculated by comparing the mass of the control tumors (receiving diluent only) on day 11 to those of animals receiving test compound.
# [3] = test system: C3H/BA mammary adenocarcinoma implanted in C3H/He female mice; assay: In vivo antitumor activity, C3H/BA mammary adenocarcinoma; set-up: species or system mouse; settings: intraperitoneal, once daily for nine days, day 14
# Description: as §1, with “C3H/BA mammary adenocarcinoma” for “6C3HED lymphosarcoma”, “test” for “test:”, “percentage of” for “percentage”, “inhibition” for “inhibition given in Table 5 below”, “14” for “11”
Structure (SMILES),GARFT inhibition (in words) [1],% Inhibition (tumor mass) ([2]; 12.5 mg/kg) [%],% Inhibition (tumor mass) ([2]; 25 mg/kg) [%],% Inhibition column: toxicity ([2]; 50 mg/kg),% Inhibition (tumor mass) ([3]; 5 mg/kg) [%],% Inhibition (tumor mass) ([3]; 10 mg/kg) [%],% Inhibition (tumor mass) ([3]; 20 mg/kg) [%]
"Nc1nc2c(c(=O)[nH]1)CC(CCc1ccc(C(=O)N[C@@H](CCC(=O)O)C(=O)O)cc1)CN2 (stereo partly shown) [5,10-dideazatetrahydrofolic acid]",specific tight binding inhibitor of GARFT,,,,,,
"Nc1nc2c(c(=O)[nH]1)SC(CCc1ccc(C(=O)N[C@@H](CCC(=O)O)C(=O)O)s1)CN2 (stereo partly drawn) [Compound 21, 4-[2-(2-Amino-4-oxo-4,6,7,8-tetrahydro-3H-pyrimido[5,4-6][1,4]thiazin-6-yl)-ethyl]-2,5-thienoylamino -L-glutamic acid]",,100,100,toxic,16,84,100
